Read-outs that look alike come from different tables or passages of the source.
Key:
cyclin D1/cdk 4 enzyme = target: T1, cyclin D1/cdk 4 enzyme (Homo sapiens, UniProt P11802); experiment: CDK4 ELISA kinase assay (phospho-Rb ser 795 detection); assay type: biochemical; details: In Vitro Enzyme Assay, cyclin D1/cdk 4, read-out: CDK4 IC50
T1 construct: made in house; host or cells: Sf9 insect cells, recombinant baculovirus
Procedure, shortened: (§1)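 Wells were coated overnight with GST-Rb C-terminal fragment, then blocked. Compound (10 ug/ml final) and cyclin/CDK enzyme from baculovirus-infected Sf9 cells with 200 μM ATP reacted 1 h at 30° C. Ser795 phosphorylation was detected by ELISA at 450 nm.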

HCT-116 = experiment: Cytotoxicity assay (SRB), HCT-116; assay type: cell-based; details: HCT116 cells, 3 days, SRB, read-out: In Vitro Cellular Activity IC50 HCT116
Procedure, shortened: (§2)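 Plate cells, let them attach overnight, add compound dilutions in RPMI 1640/5% FBS, and incubate 3 days (BT474 6 days). Then fix with TCA, stain with SRB, dissolve the dye in Tris and read at 540 nm.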

MCF-7 = experiment: Cytotoxicity assay (SRB), MCF-7; assay type: cell-based; details: MCF-7 cells, 3 days, SRB, read-out: In Vitro Cellular Activity IC50 MCF-7
Procedure, shortened: as §2

cyclin B/CDK1 enzyme = target: T2, cyclin B/CDK1 enzyme (Homo sapiens, UniProt P06493); experiment: CDK1 ELISA kinase assay (phospho-Rb ser 795 detection); assay type: biochemical; details: In Vitro Enzyme Assay, cyclin B/CDK1, read-out: CDK1 IC50
T2 construct: purchased New England BioLabs; host or cells: Sf9 insect cells, recombinant baculovirus
Procedure, shortened: as §1

cyclin E/CDK2 enzyme = target: T3, cyclin E/CDK2 enzyme (Homo sapiens, UniProt P24941); experiment: CDK2 ELISA kinase assay (phospho-Rb ser 795 detection); assay type: biochemical; details: In Vitro Enzyme Assay, cyclin E/CDK2, read-out: CDK2 IC50
T3 construct: made in house; host or cells: Sf9 insect cells, recombinant baculovirus
Procedure, shortened: as §1

LoVo = experiment: Cytotoxicity assay (SRB), LoVo; assay type: cell-based; details: LoVo cells, 3 days, SRB, read-out: In Vitro Cellular Activity IC50 LOVO
Procedure, shortened: as §2

BT474 = experiment: Cytotoxicity assay (SRB), BT474; assay type: cell-based; details: BT474 cells, 6 days, SRB, read-out: In Vitro Cellular Activity IC50 BT474
Procedure, shortened: as §2

T2 sequence (P06493 whole entry): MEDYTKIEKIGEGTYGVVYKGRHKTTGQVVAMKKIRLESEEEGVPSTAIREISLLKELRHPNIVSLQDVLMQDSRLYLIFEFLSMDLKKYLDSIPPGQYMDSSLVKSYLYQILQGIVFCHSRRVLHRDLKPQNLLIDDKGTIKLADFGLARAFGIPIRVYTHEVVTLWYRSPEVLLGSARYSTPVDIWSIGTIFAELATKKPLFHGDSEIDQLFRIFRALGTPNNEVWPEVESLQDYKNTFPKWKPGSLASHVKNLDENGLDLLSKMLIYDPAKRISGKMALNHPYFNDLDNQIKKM
T2 sequence (P14635 whole entry partner): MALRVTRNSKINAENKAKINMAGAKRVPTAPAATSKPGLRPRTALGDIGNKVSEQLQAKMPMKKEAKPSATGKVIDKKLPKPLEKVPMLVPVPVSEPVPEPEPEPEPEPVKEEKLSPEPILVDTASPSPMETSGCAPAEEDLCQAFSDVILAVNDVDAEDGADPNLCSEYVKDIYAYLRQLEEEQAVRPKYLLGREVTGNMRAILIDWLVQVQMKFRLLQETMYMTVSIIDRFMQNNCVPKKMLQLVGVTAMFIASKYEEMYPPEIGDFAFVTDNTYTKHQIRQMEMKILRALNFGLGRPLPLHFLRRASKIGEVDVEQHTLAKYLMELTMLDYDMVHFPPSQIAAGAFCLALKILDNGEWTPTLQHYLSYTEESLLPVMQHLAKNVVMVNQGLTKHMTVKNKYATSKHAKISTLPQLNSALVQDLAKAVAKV
T1 sequence (P11802 whole entry, species assumed): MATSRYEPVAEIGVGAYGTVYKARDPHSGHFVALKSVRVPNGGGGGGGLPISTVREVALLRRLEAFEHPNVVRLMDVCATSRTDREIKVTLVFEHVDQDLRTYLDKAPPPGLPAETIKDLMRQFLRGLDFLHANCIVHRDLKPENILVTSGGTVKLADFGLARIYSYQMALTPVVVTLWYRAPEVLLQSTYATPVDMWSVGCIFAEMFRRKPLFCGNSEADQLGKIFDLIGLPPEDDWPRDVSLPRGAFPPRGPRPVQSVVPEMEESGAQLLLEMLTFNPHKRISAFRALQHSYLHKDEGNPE
T1 sequence (P24385 whole entry partner, species assumed): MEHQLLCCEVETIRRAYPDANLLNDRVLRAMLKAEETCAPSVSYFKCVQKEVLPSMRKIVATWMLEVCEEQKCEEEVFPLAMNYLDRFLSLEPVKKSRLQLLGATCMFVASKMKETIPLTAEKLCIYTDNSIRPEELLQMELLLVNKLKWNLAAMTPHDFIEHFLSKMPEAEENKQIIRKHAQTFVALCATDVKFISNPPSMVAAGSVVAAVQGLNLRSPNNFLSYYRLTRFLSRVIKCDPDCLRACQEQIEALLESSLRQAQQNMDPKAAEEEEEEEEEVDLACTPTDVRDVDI

SMILES | IC50 (cyclin D1/cdk 4 enzyme) [µM] | IC50 (HCT-116; Homo sapiens, HCT-116, 72 h) [µM] | IC50 (MCF-7; Homo sapiens, MCF7, 72 h) [µM] | IC50 (cyclin B/CDK1 enzyme) [µM] | IC50 (cyclin E/CDK2 enzyme) [µM] | IC50 (LoVo; Homo sapiens, LoVo, 72 h) [µM] | IC50 (BT474; Homo sapiens, BT-474, 144 h) [µM] | IC50 (HCT-116) [µM] | IC50 (MCF-7) [µM] | IC50 (LoVo) [µM] | IC50 (BT474) [µM]
CN1CCN(c2ncc(N/C=C3\C(=O)NC(=O)c4ccc(I)cc43)cn2)CC1 [Example 475, (4Z)-6-Iodo-4-({[2-(4-methylpiperazin-1-yl)pyrimidin-5-yl]amino}methylene)isoquinoline-1,3(2H,4H)-dione] | 0.7 | 3.2 | 2.2 | > 50 | > 50 | 7.7 | 8.1 | – | – | – | –
O=C1NC(=O)c2ccc(I)cc2/C1=C/Nc1ccc(CN2CCS(=O)(=O)CC2)cc1 [Example 483, 4-{[4-(1,1-Dioxo-1-thiomorpholin-4-ylmethyl)-phenylamino]-methylene}-6-iodo-4H-isoquinoline-1,3-dione] | 16.1 | 13.1 | > 50 | > 50 | > 50 | > 50 | > 50 | – | – | – | –
CN1CCN(c2ncc(N/C=C3\C(=O)NC(=O)c4ccc(-c5ccoc5)cc43)cn2)CC1 [Example 484, (4Z)-6-(3-Furyl)-4-({[2-(4-methylpiperazin-1-yl)pyrimidin-5-yl]amino}methylene)isoquinoline-1,3(2H,4H)-dione] | 0.25 | 1.13 | 3.23 | 31 | > 50 | 1.24 | 2.49 | – | – | – | –
CCCOc1ccc(CN/C=C2\C(=O)NC(=O)c3ccc(-c4ccoc4)cc32)cc1O [Example 485, (4Z)-6-(3-Furyl)-4-{[(3-hydroxy-4-propoxybenzyl)amino]methylene}isoquinoline-1,3(2H,4H)-dione] | 0.06 | 1.36 | 1.42 | > 50 | > 50 | 0.94 | 1.07 | – | – | – | –
O=C1NC(=O)c2ccc(I)cc2/C1=C/NCc1ccc(-c2ccccc2)c(O)c1 [Example 490, 4-{[(2-Hydroxy-biphenyl-4-ylmethyl)-amino]-methylene}-6-iodo-4H-isoquinoline-1,3-dione] | 0.13 | 0.42 | 0.88 | 47.8 | 15.1 | 0.34 | 0.26 | – | – | – | –
O=C1NC(=O)c2ccc(-c3ccoc3)cc2/C1=C/Nc1ccc(CN2CCC(CCO)CC2)cc1 [Example 491, (4Z)-6-(3-Furyl)-4-{[(4-{[4-(2-hydroxyethyl)piperidin-1-yl]methyl}phenyl)amino]methylene}isoquinoline-1,3(2H,4H)-dione] | 0.05 | 3.5 | 1 | > 50 | > 50 | 2.7 | 1.2 | – | – | – | –
O=Cc1ccc(-c2ccc3c(c2)/C(=C/Nc2ccc(CN4CCCCC4)cc2)C(=O)NC3=O)o1 [Example 492, 5-[(4Z)-1,3-Dioxo-4-({[4-(piperidin-1-ylmethyl)phenyl]amino}methylene)-1,2,3,4-tetrahydroisoquinolin-6-yl]-2-furaldehyde] | 0.24 | 1 | 4.1 | > 50 | > 50 | 3 | 3.3 | – | – | – | –
O=C1NC(=O)c2ccc(-c3ccoc3)cc2/C1=C/NCc1ccc(-c2ccccc2)c(O)c1 [Example 494, 6-Furan-3-yl-4-{[(2-hydroxy-biphenyl-4-ylmethyl)-amino]-methylene}-4H-isoquinoline-1,3-dione] | 0.03 | 0.58 | 1 | 42.5 | 18.4 | 0.52 | 0.53 | – | – | – | –
CCCCc1ccc(CN/C=C2\C(=O)NC(=O)c3ccc(I)cc32)cc1O [Example 495, 4-[(4-Butyl-3-hydroxy-benzylamino)-methylene]-6-iodo-4H-isoquinoline-1,3-dione] | 0.3 | 4.9 | 3.3 | > 50 | > 50 | 6.3 | 4.5 | – | – | – | –
O=C1NC(=O)c2ccc(I)cc2/C1=C/NCc1cc(O)ccc1I [Example 496, 4-[(5-Hydroxy-2-iodo-benzylamino)-methylene]-6-iodo-4H-isoquinoline-1,3-dione] | 2.7 | 2.6 | 5.4 | > 50 | > 50 | 3.1 | 7.4 | – | – | – | –
CN1CCN(c2ccc(N/C=C3\C(=O)NC(=O)c4ccc(-c5ccoc5)cc43)c(F)n2)CC1 [Example 497, (4Z)-4-({[2-Fluoro-6-(4-methylpiperazin-1-yl)pyridin-3-yl]amino}methylene)-6-(3-furyl)isoquinoline-1,3(2H,4H)-dione] | 0.37 | – | – | > 50 | > 50 | – | – | 2.6 | 1.4 | 3.2 | 2.7
CN1CCN(c2ccc(N/C=C3\C(=O)NC(=O)c4ccc(-c5ccoc5)cc43)c(F)n2)CC1 [Example 498, (4Z)-4-({[2-Fluoro-6-(4-methylpiperazin-1-yl)pyridin-3-yl]amino}methylene)-6-(3-furyl)isoquinoline-1,3(2H,4H)-dione] | 0.21 | – | – | 19.3 | 32.4 | – | – | 1.1 | 3.5 | 1.6 | 1
O=C1NC(=O)c2ccc(I)cc2/C1=C/NCc1cc(O)ccc1-c1ccco1 [Example 499, 4-[(2-Furan-2-yl-5-hydroxy-benzylamino)-methylene]-6-iodo-4H-isoquinoline-1,3-dione] | 5.4 | 4.8 | 9.1 | > 50 | 41.5 | 8.4 | 9.8 | – | – | – | –
O=C1NC(=O)c2ccc(I)cc2/C1=C/NCc1ccc(-c2ccc(F)cc2)c(O)c1 [Example 500, 4-{[(4′-Fluoro-2-hydroxy-biphenyl-4-ylmethyl)-amino]-methylene}-6-iodo-4H-isoquinoline-1,3-dione] | 0.14 | 1.9 | 3.8 | 43.4 | 15.1 | 1.8 | 2.3 | – | – | – | –
O=C1NC(=O)c2ccc(-c3ccco3)cc2/C1=C/NCc1ccc(-c2ccc(F)cc2)c(O)c1 [Example 501, 4-{[(4′-Fluoro-2-hydroxy-biphenyl-4-ylmethyl)-amino]-methylene}-6-furan-2-yl-4H-isoquinoline-1,3-dione] | 0.03 | 2.6 | 1.4 | > 50 | 29.3 | 2.9 | 3.5 | – | – | – | –
O=C1NC(=O)c2ccc(-c3ccco3)cc2/C1=C/NCc1cc(O)ccc1I [Example 503, 6-Furan-2-yl-4-[(5-hydroxy-2-iodo-benzylamino)-methylene]-4H-isoquinoline-1,3-dione] | 0.02 | 5.2 | 1 | > 50 | 34.7 | 5.1 | 1.6 | – | – | – | –

Reference: patent publication US7713994B2 (Wyeth LLC, priority 2005, dated 2010)
